Values joined by “and” are separate entries in the source; they are usually repeats but may differ in a detail not shown here. Equal entries are not always repeated.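 1) Cells in 96-well plates. 2) Compound, 48 h, 5 concentrations. 3) Linear interpolation between surrounding doses. 4) Unreached endpoint = highest concentration. Abbreviation: GI50, concentration required for 50% inhibition of growth. TGI marks complete inhibition of growth.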
These molecules were tested on A498 renal (assay: NCI anticancer screen, dose series, 48 h).

Row | Structure (SMILES) | TGI | GI50
1 | Clc1ccc2c(c1)[nH]c1c2nc2ccccn21 | > 100 µM and 44.5 µM | 
2 | CCOC(=O)c1cnc2c(ccc3[nH]n(C)nc32)c1=O | > 100 µM | 
3 | COc1ccc2occ(CCC(=O)O)c2c1 | > 100 µM | 
4 | COC(=O)C(C(=O)c1ccccc1)C(C(=O)C(=O)Nc1ccc(OC)cc1OC)C(=O)C(=O)c1ccc(C)cc1 (configuration not stated) | > 100 µM | 
5 | O=C(Nc1ccn(CCO)c(=O)n1)c1ccccc1 | > 100 µM | 
6 | O=C1CCC2(c3ccc(Cl)cc3)Nc3ncccc3N12 (configuration not stated) | > 100 µM | 
7 | C#CCOc1cccc(-c2ncc3cc(NC(=O)CCl)ccc3n2)c1 | 31 µM | 13.2 µM
8 | CC12C/C(=C\c3ccccc3)C(=O)C3C1CCCC32 | > 100 µM | 
9 | OC(CC1SCCCS1)c1ccccc1 (configuration not stated) | > 100 µM | 
10 | CCCCOC(=O)CNC(=O)OC/C=C/C#CC#C/C=C/COC(=O)NCC(=O)OCCCC | > 100 µM | > 100 µM
11 | O=C1c2ccccc2C(=O)N1CCn1ccc(NC(c2ccccc2)(c2ccccc2)c2ccccc2)nc1=O | 38.6 µM | 
12 | CC(C)(C)NNC(=O)CCn1[nH]c(=O)c(Cl)c(Cl)c1=O | > 100 µM | 
13 | O=CCC1CCCCC1 | > 100 µM | 
14 | COc1cc(Nc2ncccc2C(=O)NCc2cn(Cc3cccc(Oc4ccccc4)c3)nn2)cc(OC)c1 | > 100 µM | 4.18 µM
15 | Nc1ccc([N+](=O)[O-])cc1N=C/C=C/c1ccccc1 | 64.4 µM | 15.1 µM
16 | Cc1cc(Nc2ccc(NC(=O)c3ccc(Nc4ccnc5ccccc45)cc3)cc2)nc(N)n1 | > 100 µM | 5.13 µM
17 | CCN(CC)CCCN1CCc2c([nH]c3ccccc23)C1c1cccnc1 (configuration not stated) | > 100 µM | 
18 | COC(=O)C1c2cc3c(cc2C(OC2OC(C)C(OC)C(C)(OC)C2OC)CC1(C)O)C(=O)c1c(O)cc2c(c1C3=O)OC1OC2(C)C(O)C([N+](C)(C)[O-])C1O (configuration not stated) | 3.7 µM | 
19 | CC(C)N(C(=O)C12C3C4C1C1C4(C#N)C3C12C#N)C(C)C (configuration not stated) | > 100 µM | 

Row | Structure (SMILES) | TGI | GI50
20 | O=C1CCC(Cl)=CC2CCCN12 (configuration not stated) | > 100 µM | 
21 | c1ccc2cc(-c3cc4ccccc4s3)ccc2c1 | > 100 µM | 
22 | Cc1ccc(S(=O)(=O)Nc2ccccc2C=O)cc1 | 92.2 µM | 
23 | Cc1ccc(S(=O)(=O)N(C=O)N=C2CCN(Cc3ccccc3)CC2)cc1 | > 100 µM | 
24 | CC(C)C(CCl)NC(=O)c1cccc(C(=O)N[C@H](CCl)C(C)C)n1 (stereo in doubt) | > 100 µM | 
25 | CCC(=O)CC(=O)CCC(=O)Nc1cc(C)ccc1C | > 100 µM | 
26 | C(=NCCN1CCOCC1)=NC1CCCCC1 | > 100 µM | 
27 | CC[As](CC)SC[C@H](C)C(=O)N1CCC[C@H]1C(=O)O | 0.866 µM | 0.296 µM
28 | NC(N)=N/N=C/c1c(-c2ccsc2)nc2sccn12 | 31.8 µM | 17.5 µM
29 | Oc1ccc(Nc2ncnc3c2sc2ncccc23)cc1 | 1.93 µM | 0.0236 µM
30 | CC(=O)OC1COC(Oc2c(C)c3c4c(c2O)[C@@H](C)CC[C@@H]4[C@@H](C)C[C@H]3C=C(C)C)C(O)C1OC(C)=O (some centres not stated) | 45.7 µM | 23.5 µM
31 | O=c1/c(=C/c2ccccc2[N+](=O)[O-])sc2nnc(-c3ccco3)n12 | > 100 µM | 
32 | CC(=O)CCn1ncc(Cl)c(Cl)c1=O | 42.9 µM | 
33 | COc1cc(C(=O)N2CCN(C=O)C2=S)cc(OC)c1OC | 37.6 µM | 20.5 µM
34 | CN1CC(=O)N2Cc3ccccc3-n3cccc3C2C1 (configuration not stated) | > 100 µM | 
35 | NC(=S)N/N=C/C(=O)O | > 100 µM | > 100 µM
36 | Cc1cn2c(=O)c3ncn(C4OC(CO)C(O)C4O)c3n(C)c2n1 (configuration not stated) | > 100 µM | 
37 | CC/C=C\C[C@H](O)C/C=C1/C(=O)C(Cl)=C[C@@H]1C/C=C\CCCC(=O)OC | 10.2 µM | 3.65 µM

Each molecule was assayed on COLO 205 colon (assay: NCI anticancer screen, dose series, 48 h).

Row | Structure (SMILES) | TGI | GI50
38 | CCOC(=O)c1cnc2c(ccc3[nH]n(C)nc32)c1=O | > 100 µM | 
39 | NC(=S)N/N=C(\CC1OC(=O)c2ccccc21)c1ccc(Cl)cc1 (configuration not stated) | 98.8 µM | 
40 | COc1ccc2occ(CCC(=O)O)c2c1 | > 100 µM | 
41 | COC(=O)C(C(=O)c1ccccc1)C(C(=O)C(=O)Nc1ccc(OC)cc1OC)C(=O)C(=O)c1ccc(C)cc1 (configuration not stated) | > 100 µM | 
42 | CC1(C)COC(C2(C)C(=O)C=C(c3ccccc3)c3ccccc32)=N1 (configuration not stated) | > 100 µM | 
43 | O=C(Nc1ccn(CCO)c(=O)n1)c1ccccc1 | > 100 µM | 
44 | O=C1CCC2(c3ccc(Cl)cc3)Nc3ncccc3N12 (configuration not stated) | > 100 µM | 
45 | CC12C/C(=C\c3ccccc3)C(=O)C3C1CCCC32 | > 100 µM | 
46 | OC(CC1SCCCS1)c1ccccc1 (configuration not stated) | > 100 µM | 
47 | CCCCOC(=O)CNC(=O)OC/C=C/C#CC#C/C=C/COC(=O)NCC(=O)OCCCC | > 100 µM | > 100 µM
48 | O=C1c2ccccc2C(=O)N1CCn1ccc(NC(c2ccccc2)(c2ccccc2)c2ccccc2)nc1=O | 31.4 µM | 
49 | CC(C)(C)NNC(=O)CCn1[nH]c(=O)c(Cl)c(Cl)c1=O | > 100 µM | 
50 | O=CCC1CCCCC1 | > 100 µM | 
51 | CCC12CCCN(Cc3ccccc3)C1c1c(n(C)c3ccccc13)CC2 (configuration not stated) | > 253 µM | 
52 | COc1cc(Nc2ncccc2C(=O)NCc2cn(Cc3cccc(Oc4ccccc4)c3)nn2)cc(OC)c1 | > 100 µM | 4.12 µM
53 | Nc1ccc([N+](=O)[O-])cc1N=C/C=C/c1ccccc1 | > 100 µM | 23 µM
54 | CCN(CC)CCCN1CCc2c([nH]c3ccccc23)C1c1cccnc1 (configuration not stated) | > 100 µM | 
55 | COC(=O)C1c2cc3c(cc2C(OC2OC(C)C(OC)C(C)(OC)C2OC)CC1(C)O)C(=O)c1c(O)cc2c(c1C3=O)OC1OC2(C)C(O)C([N+](C)(C)[O-])C1O (configuration not stated) | 0.293 µM | 
56 | Nc1nc(Cl)cc(NCCCCCCCCNc2cc(Cl)nc(N)n2)n1 | > 100 µM | 

Row | Structure (SMILES) | TGI | GI50
57 | CC(C)N(C(=O)C12C3C4C1C1C4(C#N)C3C12C#N)C(C)C (configuration not stated) | > 100 µM | 
58 | O=C1CCC(Cl)=CC2CCCN12 (configuration not stated) | > 100 µM | 
59 | COc1ccc(/C=C\[N+](=O)[O-])cc1OC | 18 µM | 5.1 µM
60 | c1ccc2cc(-c3cc4ccccc4s3)ccc2c1 | > 100 µM | 
61 | Cc1ccc(S(=O)(=O)Nc2ccccc2C=O)cc1 | 33.2 µM | 
62 | Cc1ccc(S(=O)(=O)N(C=O)N=C2CCN(Cc3ccccc3)CC2)cc1 | > 100 µM | 
63 | CC(C)C(CCl)NC(=O)c1cccc(C(=O)N[C@H](CCl)C(C)C)n1 (stereo in doubt) | > 100 µM | 
64 | C(=NCCN1CCOCC1)=NC1CCCCC1 | > 100 µM | 
65 | CC[As](CC)SC[C@H](C)C(=O)N1CCC[C@H]1C(=O)O | 0.14 µM | 0.0344 µM
66 | Oc1ccc(Nc2ncnc3c2sc2ncccc23)cc1 |  | 0.0726 µM
67 | CC(=O)OC1COC(Oc2c(C)c3c4c(c2O)[C@@H](C)CC[C@@H]4[C@@H](C)C[C@H]3C=C(C)C)C(O)C1OC(C)=O (some centres not stated) | 57.4 µM | 15.5 µM
68 | S=C(Nc1ccc(Cl)cc1)Nc1ccc(-c2nc3ccccc3s2)cc1 | 53.7 µM | 18.7 µM
69 | O=c1/c(=C/c2ccccc2[N+](=O)[O-])sc2nnc(-c3ccco3)n12 | > 100 µM | 
70 | CO/N=C(/C)c1cccc(Nc2cc(-n3nnc4ccccc43)nc3ccccc23)c1 | > 100 µM | > 100 µM
71 | COc1cc(C(=O)N2CCN(C=O)C2=S)cc(OC)c1OC | 39.4 µM | 20.2 µM
72 | CN1CC(=O)N2Cc3ccccc3-n3cccc3C2C1 (configuration not stated) | > 100 µM | 
73 | NC(=S)N/N=C/C(=O)O | > 100 µM | > 100 µM
74 | Cc1cn2c(=O)c3ncn(C4OC(CO)C(O)C4O)c3n(C)c2n1 (configuration not stated) | > 100 µM | 
75 | CC/C=C\C[C@H](O)C/C=C1/C(=O)C(Cl)=C[C@@H]1C/C=C\CCCC(=O)OC | 1.69 µM | 0.55 µM

What follows are molecules tested on EKVX NSCLC (assay: NCI anticancer screen, dose series, 48 h).

Row | Structure (SMILES) | GI50 | TGI
76 | Clc1ccc2c(c1)[nH]c1c2nc2ccccn21 | 51.9 µM and 21.6 µM | > 100 µM and 63.2 µM
77 | CCOC(=O)c1cnc2c(ccc3[nH]n(C)nc32)c1=O |  | > 100 µM
78 | COc1ccc2occ(CCC(=O)O)c2c1 |  | > 100 µM
79 | COC(=O)C(C(=O)c1ccccc1)C(C(=O)C(=O)Nc1ccc(OC)cc1OC)C(=O)C(=O)c1ccc(C)cc1 (configuration not stated) |  | > 100 µM
80 | CC1(C)COC(C2(C)C(=O)C=C(c3ccccc3)c3ccccc32)=N1 (configuration not stated) |  | > 100 µM
81 | O=C(Nc1ccn(CCO)c(=O)n1)c1ccccc1 |  | > 100 µM
82 | O=C1CCC2(c3ccc(Cl)cc3)Nc3ncccc3N12 (configuration not stated) |  | > 100 µM
83 | OC(CC1SCCCS1)c1ccccc1 (configuration not stated) |  | > 100 µM

Reference: PubChem BioAssay (NCI)
